Measurements published in PubChem BioAssay (NCI).
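These data come from cells grown in 96-well plates and exposed to compound for 48 hours at five concentrations. At the GI50, growth is halved. TGI is the concentration that stops growth completely.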

Experiments:
Assay in all cases: growth of human tumour cells (NCI), 48 h
HCC-2998 colon = test system: HCC-2998 colon
LOX IMVI melanoma = test system: LOX IMVI melanoma
MOLT-4 leukemia = test system: MOLT-4 leukemia
RXF 393 renal = test system: RXF 393 renal
SF-539 CNS = test system: SF-539 CNS
SK-OV-3 ovarian = test system: SK-OV-3 ovarian
SW-620 colon = test system: SW-620 colon
A498 renal = test system: A498 renal
IGROV1 ovarian = test system: IGROV1 ovarian
RPMI-8226 leukemia = test system: RPMI-8226 leukemia
SN12C renal = test system: SN12C renal

| SMILES | TGI (HCC-2998 colon) | TGI (LOX IMVI melanoma) | GI50 (MOLT-4 leukemia) | TGI (MOLT-4 leukemia) | TGI (RXF 393 renal) | GI50 (SF-539 CNS) | TGI (SF-539 CNS) | TGI (SK-OV-3 ovarian) | TGI (SW-620 colon) | TGI (A498 renal) | TGI (IGROV1 ovarian) | TGI (RPMI-8226 leukemia) | TGI (SN12C renal) | GI50 (A498 renal) | GI50 (HCC-2998 colon) | GI50 (IGROV1 ovarian) | GI50 (LOX IMVI melanoma) | GI50 (RPMI-8226 leukemia) | GI50 (RXF 393 renal) |
| --- | --- | --- | --- | --- | --- | --- | --- | --- | --- | --- | --- | --- | --- | --- | --- | --- | --- | --- | --- |
| O=C(N/N=C/c1cc(Cl)cc(Cl)c1[O-])c1ccccc1O.O=C(N/N=C/c1cc(Cl)cc(Cl)c1[O-])c1ccccc1O.[Mn+2] | 13.5 µM | 14.1 µM | 0.289 µM | 14.8 µM | 5.7 µM | 0.459 µM | 4.51 µM | 3.58 µM | 17.7 µM |  |  |  |  |  |  |  |  |  |  |
| COc1ccc2[nH]c(=O)cc(C)c2c1[N+](=O)[O-] | > 100 µM | > 100 µM |  | > 100 µM |  |  | > 100 µM | > 100 µM | > 100 µM | > 100 µM | > 100 µM | > 100 µM | > 100 µM |  |  |  |  |  |  |
| Cc1ccnn1CCc1ccc(Cl)cc1Cl |  | > 100 µM |  | 56.6 µM | 82.9 µM |  | 49.6 µM | > 100 µM | > 100 µM |  | > 100 µM | 38.2 µM | > 100 µM |  |  |  |  |  |  |
| Nc1nc(N)c2ncn(Cc3ccccc3CO)c2n1 |  | > 100 µM |  | > 100 µM |  |  | > 100 µM | > 100 µM | > 100 µM | > 100 µM | > 100 µM | > 100 µM | > 100 µM |  |  |  |  |  |  |
| CSc1nc2c(ncn2C2OC(CO)C(O)C(O)C2O)c(=O)n1C (stereo not given) | > 100 µM | > 100 µM |  | > 100 µM | > 100 µM |  | > 100 µM | > 100 µM | > 100 µM | > 100 µM | > 100 µM | > 100 µM | > 100 µM |  |  |  |  |  |  |
| COc1cccc(/C=N/[N+](C)(C)C)c1O | > 10 µM | > 10 µM |  | > 10 µM | > 10 µM |  | > 10 µM | > 10 µM | > 10 µM | > 10 µM | > 10 µM | > 10 µM | > 10 µM |  |  |  |  |  |  |
| O=C1Nc2ccccc2C1(O)Cc1ccccn1 (stereo not given) | > 100 µM | > 100 µM |  |  | > 100 µM |  |  | > 100 µM | > 100 µM | > 100 µM | > 100 µM | > 100 µM | > 100 µM |  |  |  |  |  |  |
| COc1cc(C2c3cc4c(cc3[C@@H](Nc3cnc5ccccc5c3)C3COC(=O)[C@H]23)OCO4)cc(OC)c1O (stereo not given in full) | 2.24 µM |  |  |  | 3 µM |  | 0.82 µM | 6.18 µM |  | 1.38 µM | 10.4 µM | 1.9 µM |  |  |  |  |  |  |  |
| O=c1c2cc([N+](=O)[O-])ccc2[nH]n1Cc1ccccc1Cl | > 100 µM | > 100 µM |  | > 100 µM | > 100 µM |  | > 100 µM |  | > 100 µM | > 100 µM | > 100 µM | 95.2 µM | > 100 µM |  |  |  |  |  |  |
| C=C1C(=O)OC2/C=C(CO)/C=C\C3OC3(C)CC(OC(=O)/C(C)=C/COC(C)=O)C12 (stereo not given) | 28.8 µM | 3.05 µM |  | 5.49 µM | 4.12 µM |  | 4.39 µM | 31.7 µM | 3.24 µM | 20.6 µM | 23.9 µM | 4.33 µM | 5.63 µM |  |  |  |  |  |  |
| C=CCn1c(C)nc2cc(Nc3nc(N4CCCC4)nc4nc[nH]c34)ccc21 | > 100 µM | > 100 µM | > 100 µM | > 100 µM | > 100 µM |  |  |  |  | > 100 µM | > 100 µM | > 100 µM |  | > 100 µM | > 100 µM | > 100 µM | > 100 µM | > 100 µM | > 100 µM |
| COc1cc2c(/C=C3/C(=O)Nc4cc(C)c(O)cc43)c(Cl)[nH]c2cc1C |  | 35.5 µM |  | 0.835 µM | 7.1 µM |  | 5.93 µM | 8.32 µM | 12.4 µM | 43.2 µM | 18.8 µM | 4.44 µM | 6.07 µM |  |  |  |  |  |  |
| O=C1C=CC2(C=C1)O[C@H](CCc1ccccc1)[C@@H](CCc1ccccc1)O2 |  | 27.3 µM |  | > 100 µM | > 100 µM |  | > 100 µM | > 100 µM | > 100 µM | > 100 µM | > 100 µM | > 100 µM | > 100 µM |  |  |  |  |  |  |
| COc1cnc2oc3ccc(O)cc3c2c1-c1ccccc1 | 92.1 µM | > 100 µM |  | > 100 µM | > 100 µM |  | > 100 µM | > 100 µM | > 100 µM | > 100 µM |  | > 100 µM | > 100 µM |  |  |  |  |  |  |
| O=C(O)C(C1NCCS1)N1C(=O)c2ccccc2C1=O (stereo not given) |  | > 100 µM |  | > 100 µM | > 100 µM |  | > 100 µM | > 100 µM | > 100 µM | > 100 µM | > 100 µM | > 100 µM | > 100 µM |  |  |  |  |  |  |
| CC1=CC2=C(C=O)C(=O)[C@](C)(O)[C@@H](O)C2=CO1 | > 61.5 µM | > 74.3 µM |  | 41.3 µM | 52.3 µM |  | 97.5 µM | 76.3 µM | > 77.6 µM | 73.5 µM | > 100 µM | 47.1 µM | > 100 µM |  |  |  |  |  |  |
| C=C1C(=O)OC2/C=C(\CO)C3OC3C3OC3(C)CC(OC(=O)/C(=C/C)COC(C)=O)C12 (stereo not given) | 37.1 µM | 3.24 µM |  | > 100 µM | 3.96 µM |  | 7.38 µM | 45.7 µM | 2.8 µM | 27.7 µM | 29.5 µM | > 100 µM | 10.9 µM |  |  |  |  |  |  |
| COc1ccc(C(=O)c2[nH]c(Nc3cc(C)ccn3)c(C(=S)Nc3ccccc3)c2N)cc1 | 37.4 µM | 42.2 µM |  | > 100 µM | 38.4 µM |  | 35.8 µM | 47 µM | 71 µM | 33.1 µM | 42 µM | 37.3 µM | 39.2 µM |  |  |  |  |  |  |
| Cc1c2cnccc2c(C)c2c1c1ccccc1n2CCCCCCCl | > 50 µM | > 50 µM |  | > 50 µM | > 50 µM |  | > 50 µM | > 50 µM | > 50 µM | > 50 µM | > 50 µM | > 48.9 µM | > 50 µM |  |  |  |  |  |  |
| O=C1Sc2sc(=S)sc2SC1c1ccccc1 (stereo not given) | > 100 µM | > 82.6 µM |  | > 100 µM | 76.6 µM |  | > 100 µM | > 100 µM | 39.3 µM | > 100 µM | > 100 µM | > 100 µM | > 100 µM |  |  |  |  |  |  |
